The source of these data is PubChem BioAssay (NCI).

Test systems include A549 NSCLC; CCRF-CEM leukemia; EKVX NSCLC; HCT-116 colon; HS 578T breast; MALME-3M melanoma; MDA-MB-435; RXF 393 renal; SF-295 CNS; SK-MEL-2 melanoma; SK-MEL-5 melanoma; SN12C renal; SW-620 colon; TK-10 renal; UACC-257 melanoma; UO-31 renal.
Holding throughout (test): growth of human tumour cells (NCI), 48 h

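96-well plates; 48 h exposure; 5 concentrations. Endpoints by linear interpolation between flanking doses. Not reached: highest tested concentration assigned. At the TGI there is no net growth.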

For `O=C1NC(=O)C(F)(n2cc(F)c(=O)[nH]c2=O)C(O)N1` (configuration not stated), the TGI with A549 NSCLC, with CCRF-CEM leukemia, in the experiment with EKVX NSCLC, in the experiment with HCT-116 colon, in the experiment on HS 578T breast and with MALME-3M melanoma was more than 10 µM throughout. The TGI with MDA-MB-435, in the experiment with RXF 393 renal, in the experiment with SF-295 CNS, in the experiment with SK-MEL-2 melanoma, with SK-MEL-5 melanoma and in the experiment with SN12C renal was more than 10 µM in each case. The TGI with SW-620 colon, in the experiment with TK-10 renal, in the experiment on UACC-257 melanoma and with UO-31 renal was more than 10 µM throughout.

As to `N#Cc1nc(CCN2C(=O)c3ccccc3C2=O)oc1N`, the TGI in the experiment with A549 NSCLC, with CCRF-CEM leukemia, in the experiment on EKVX NSCLC, in the experiment with HCT-116 colon, in the experiment on HS 578T breast and in the experiment with MALME-3M melanoma was more than 100 µM in each case. Besides, the TGI in the experiment with MDA-MB-435, in the experiment on RXF 393 renal, in the experiment with SF-295 CNS, in the experiment with SK-MEL-2 melanoma, with SK-MEL-5 melanoma and in the experiment with SN12C renal was more than 100 µM each time. The TGI in the experiment with SW-620 colon, in the experiment with TK-10 renal, with UACC-257 melanoma and in the experiment on UO-31 renal was more than 100 µM in each case.
